For this test, the target named is human LPAR1 (Homo sapiens, UniProt Q92633). The experiment in a line: LPAR1 intracellular calcium mobilization assay (antagonist mode).

The results in this text go back to patent US11548871B2, “Triazole carbamate pyridyl sulfonamides as LPA receptor antagonists and uses thereof” (Gilead Sciences, Inc., priority 2019, dated 2023).

human LPAR1, sequence (Q92633 whole entry): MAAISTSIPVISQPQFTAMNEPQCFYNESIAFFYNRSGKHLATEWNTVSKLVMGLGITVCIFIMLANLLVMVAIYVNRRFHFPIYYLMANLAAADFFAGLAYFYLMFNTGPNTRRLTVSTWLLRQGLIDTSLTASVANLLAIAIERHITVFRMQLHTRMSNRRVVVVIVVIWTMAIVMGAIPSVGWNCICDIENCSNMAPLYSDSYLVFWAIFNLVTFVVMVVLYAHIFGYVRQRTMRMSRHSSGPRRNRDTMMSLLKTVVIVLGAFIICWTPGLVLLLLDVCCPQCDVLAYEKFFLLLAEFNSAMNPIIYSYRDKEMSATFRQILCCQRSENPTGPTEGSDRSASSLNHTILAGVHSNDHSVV

With `Cc1nc(-c2nnn(C)c2NC(=O)OCCC(C)C)ccc1NS(C)(=O)=O` [Compound 33, isopentyl (1-methyl-4-(6-methyl-5-(methylsulfonamido)pyridin-2-yl)-1H-1,2,3-triazol-5-yl)carbamate], the EC50 was determined as 3680 nM.

For the compound `CNS(=O)(=O)Nc1ccc(-c2nnn(C)c2NC(=O)O[C@H](C)c2cccnc2Cl)nc1C` [Compound 163, (R)-1-(2-chloropyridin-3-yl)ethyl (1-methyl-4-(6-methyl-5-((N-methylsulfamoyl)amino)pyridin-2-yl)-1H-1,2,3-triazol-5-yl)carbamate], the 50% effective concentration (EC50) came to 208 nM.

With `Cc1nc(-c2nnn(C)c2NC(=O)O[C@H](CF)c2ccccc2F)ccc1NS(C)(=O)=O` [Compound 44, (S)-2-fluoro-1-(2-fluorophenyl)ethyl (1-methyl-4-(6-methyl-5-(methylsulfonamido)pyridin-2-yl)-1H-1,2,3-triazol-5-yl)carbamate], the EC50 stood at 50 nM.

For `Cc1nc(-c2nnn(C)c2NC(=O)OCc2cccc(Cl)c2)ccc1NS(C)(=O)=O` [Compound 39, 3-chlorobenzyl (1-methyl-4-(6-methyl-5-(methylsulfonamido)pyridin-2-yl)-1H-1,2,3-triazol-5-yl)carbamate], the EC50 was 89.5 nM.

Regarding `Cc1nc(-c2nnn(C)c2NC(=O)O[C@H](C)c2cc(Cl)sc2Cl)ccc1NS(C)(=O)=O` [Compound 52, (R)-1-(2,5-dichlorothiophen-3-yl)ethyl (1-methyl-4-(6-methyl-5-(methylsulfonamido)pyridin-2-yl)-1H-1,2,3-triazol-5-yl)carbamate], the 50% effective concentration (EC50) came to 16.7 nM.

As for `CCCCC[C@H](OC(=O)Nc1c(-c2ccc(NS(C)(=O)=O)c(C)n2)nnn1C)C(F)(F)F` [Compound 47, (S)-1,1,1-trifluoroheptan-2-yl (1-methyl-4-(6-methyl-5-(methylsulfonamido)pyridin-2-yl)-1H-1,2,3-triazol-5-yl)carbamate], the EC50 was 132 nM.

With `Cc1nc(-c2nnn(C)c2NC(=O)OC(C)c2cc(Cl)nnc2Cl)ccc1NS(C)(=O)=O` (stereo not shown) [Compound 134, 1-(3,6-dichloropyridazin-4-yl)ethyl (1-methyl-4-(6-methyl-5-(methylsulfonamido)pyridin-2-yl)-1H-1,2,3-triazol-5-yl)carbamate], the EC50 stood at 1830 nM.

In the case of `Cn1nnc(-c2ccc(NS(C)(=O)=O)c(F)n2)c1NC(=O)O[C@@H](c1ccccc1)C(F)F` [Compound 6, (S)-2,2-difluoro-1-phenylethyl (4-(6-fluoro-5-(methylsulfonamido)pyridin-2-yl)-1-methyl-1H-1,2,3-triazol-5-yl)carbamate], the EC50 turned out to be 71.3 nM.

Turning to `CCCCCC[C@H](OC(=O)Nc1c(-c2ccc(NS(C)(=O)=O)c(C)n2)nnn1C)C(F)(F)F` [Compound 51, (S)-1,1,1-trifluorooctan-2-yl (1-methyl-4-(6-methyl-5-(methylsulfonamido)pyridin-2-yl)-1H-1,2,3-triazol-5-yl)carbamate], the EC50 came out at 1250 nM.

For `Cc1nc(-c2nnn(C)c2NC(=O)O[C@H](C)c2cc(F)cc(F)c2)ccc1NS(C)(=O)=O` [Compound 53, (R)-1-(3,5-difluorophenyl)ethyl (1-methyl-4-(6-methyl-5-(methylsulfonamido)pyridin-2-yl)-1H-1,2,3-triazol-5-yl)carbamate], the EC50 amounted to 170 nM.

As to `Cc1nc(-c2nnn(C)c2NC(=O)OCCCC(C)(C)C)ccc1NS(C)(=O)=O` [Compound 30, 4,4-dimethylpentyl (1-methyl-4-(6-methyl-5-(methylsulfonamido)pyridin-2-yl)-1H-1,2,3-triazol-5-yl)carbamate], the EC50 was 667 nM.

As for `C[C@@H](OC(=O)Nc1c(-c2ccc(NS(C)(=O)=O)c(Cl)n2)nnn1C)c1ccccc1` [Compound 2, (R)-1-phenylethyl (4-(6-chloro-5-(methylsulfonamido)pyridin-2-yl)-1-methyl-1H-1,2,3-triazol-5-yl)carbamate], the EC50 was 270 nM.

Regarding `C[C@@H](OC(=O)Nc1c(-c2ccc(NS(C)(=O)=O)cn2)nnn1C)c1cc(F)ccc1F` [Compound 17, (R)-1-(2,5-difluorophenyl)ethyl (1-methyl-4-(5-(methylsulfonamido)pyridin-2-yl)-1H-1,2,3-triazol-5-yl)carbamate], the EC50 is 5 nM.

With `COc1ncccc1[C@@H](C)OC(=O)Nc1c(-c2ccc(NS(C)(=O)=O)c(C)n2)nnn1C` [Compound 122, (R)-1-(2-methoxypyridin-3-yl)ethyl (1-methyl-4-(6-methyl-5-(methylsulfonamido)pyridin-2-yl)-1H-1,2,3-triazol-5-yl)carbamate], the EC50 worked out at 920 nM.

On to `Cc1nc(-c2nnn(C)c2NC(=O)O[C@H](C)CC(C)C)ccc1NS(C)(=O)=O` [Compound 72, (R)-4-methylpentan-2-yl (1-methyl-4-(6-methyl-5-(methylsulfonamido)pyridin-2-yl)-1H-1,2,3-triazol-5-yl)carbamate], for which the EC50 stood at 115 nM.

For `Cc1nc(-c2nnn(C)c2NC(=O)O[C@H](C)c2ccccc2Cl)ccc1N(C)S(C)(=O)=O` [Compound 86, (R)-1-(2-chlorophenyl)ethyl(1-methyl-4-(6-methyl-5-(N-methylmethylsulfonamido)pyridin-2-yl)-1H-1,2,3-triazol-5-yl)carbamate], the EC50 stood at 55.4 nM.

On to `Cc1nc(-c2nnn(C)c2NC(=O)O[C@H](C)c2nc(Cl)sc2Cl)ccc1NS(C)(=O)=O` [Compound 139, (R)-1-(2,5-dichlorothiazol-4-yl)ethyl (1-methyl-4-(6-methyl-5-(methylsulfonamido)pyridin-2-yl)-1H-1,2,3-triazol-5-yl)carbamate], for which the EC50 was 163 nM.

Take `Cc1nc(-c2nnn(C)c2NC(=O)O[C@H](C)c2cccnc2Cl)ccc1NS(C)(=O)=O` [Compound 68, (R)-1-(2-chloropyridin-3-yl)ethyl (1-methyl-4-(6-methyl-5-(methylsulfonamido)pyridin-2-yl)-1H-1,2,3-triazol-5-yl)carbamate]: the EC50 turned out to be 218 nM.

For the compound `COC1CN(S(=O)(=O)Nc2ccc(-c3nnn(C)c3NC(=O)O[C@H](C)c3cccc(F)c3)nc2C)C1` [Compound 108, (R)-1-(3-fluoro-phenyl)ethyl (4-(5-((3-methoxy-azetidine)-1-sulfonamido)-6-methylpyridin-2-yl)-1-methyl-1H-1,2,3-triazol-5-yl)carbamate], the EC50 stood at 10000 nM.

With `Cc1nc(-c2nnn(C)c2NC(=O)O[C@H](C)c2cncnc2C)ccc1NS(C)(=O)=O` [Compound 70, (R)-1-(4-methylpyrimidin-5-yl)ethyl (1-methyl-4-(6-methyl-5-(methylsulfonamido)pyridin-2-yl)-1H-1,2,3-triazol-5-yl)carbamate], the EC50 is 1590 nM.

`Cc1nc(-c2nnn(C)c2NC(=O)OC(C)c2cncc(Cl)c2)ccc1NS(C)(=O)=O` (stereo not shown) [Compound 83, 1-(5-chloropyridin-3-yl)ethyl (1-methyl-4-(6-methyl-5-(methylsulfonamido)pyridin-2-yl)-1H-1,2,3-triazol-5-yl)carbamate]: the concentration giving a half-maximal response (EC50) is 623 nM.

As for `COc1nc(-c2nnn(C)c2NC(=O)O[C@@H](c2ccccc2)C(F)F)ccc1NS(C)(=O)=O` [Compound 7, (S)-2,2-difluoro-1-phenylethyl (4-(6-methoxy-5-(methylsulfonamido)pyridin-2-yl)-1-methyl-1H-1,2,3-triazol-5-yl)carbamate], the concentration giving a half-maximal response (EC50) came to 112 nM.

Take `Cc1nc(-c2nnn(C)c2NC(=O)OC(CCC2CC2)C(F)(F)F)ccc1NS(C)(=O)=O` (stereo not shown) [Compound 46, 4-cyclopropyl-1,1,1-trifluorobutan-2-yl (1-methyl-4-(6-methyl-5-(methylsulfonamido)pyridin-2-yl)-1H-1,2,3-triazol-5-yl)carbamate]: the EC50 was found to be 91.3 nM.

With `Cc1nc(-c2nnn(C)c2NC(=O)O[C@H](C)c2ccccc2Cl)ccc1NS(=O)(=O)CC#N` [Compound 102, (R)-1-(2-chloro-phenyl)ethyl (4-(5-((cyano-methyl)sulfonamido)-6-methyl-pyridin-2-yl)-1-methyl-1H-1,2,3-triazol-5-yl)carbamate], the EC50 amounted to 88.4 nM.

Take `Cc1nc(-c2nnn(C)c2NC(=O)O[C@H](C)c2cccc(F)c2)ccc1NS(=O)(=O)C1CCC1` [Compound 104, (R)-1-(3-fluoro-phenyl)ethyl(4-(5-(cyclobutane-sulfonamido)-6-methylpyridin-2-yl)-1-methyl-1H-1,2,3-triazol-5-yl)carbamate]: the EC50 stood at 434 nM.

As for `Cc1nc(-c2nnn(CC#N)c2NC(=O)O[C@H](C)c2ccccc2Cl)ccc1NS(C)(=O)=O` [Compound 96, (R)-1-(2-chlorophenyl)ethyl(1-(cyanomethyl)-4-(6-methyl-5-(methylsulfonamido)pyridin-2-yl)-1H-1,2,3-triazol-5-yl)carbamate], the EC50 was determined as 18.1 nM.

Regarding `Cc1nc(-c2nnn(C)c2NC(=O)O[C@H](C)c2cccc(F)c2F)ccc1NS(C)(=O)=O` [Compound 87, (R)-1-(2,3-difluorophenyl)ethyl(1-methyl-4-(6-methyl-5-(methylsulfonamido)pyridin-2-yl)-1H-1,2,3-triazol-5-yl)carbamate], the EC50 was found to be 312 nM.

Regarding `Cc1nc(-c2nnn(C)c2NC(=O)OCc2ccccc2Cl)ccc1NS(C)(=O)=O` [Compound 40, 2-chlorobenzyl (1-methyl-4-(6-methyl-5-(methylsulfonamido)pyridin-2-yl)-1H-1,2,3-triazol-5-yl)carbamate], the EC50 is 87 nM.

Turning to `Cc1cccc(COC(=O)Nc2c(-c3ccc(NS(C)(=O)=O)cn3)nnn2C)c1` [Compound 19, 3-methylbenzyl (1-methyl-4-(5-(methylsulfonamido)pyridin-2-yl)-1H-1,2,3-triazol-5-yl)carbamate], the EC50 amounted to 284 nM.

Turning to `CC(OC(=O)Nc1c(-c2ccc(NS(C)(=O)=O)cn2)nnn1C)c1c(F)cccc1Cl` (stereo not shown) [Compound 120, 1-(2-chloro-6-fluorophenyl)ethyl (1-methyl-4-(5-(methylsulfonamido)pyridin-2-yl)-1H-1,2,3-triazol-5-yl)carbamate], the EC50 is 87 nM.

Consider `Cc1nc(-c2nnn(C)c2NC(=O)O[C@@H](c2cccc(F)c2)C(F)F)ccc1NS(C)(=O)=O` [Compound 58, (S)-2,2-difluoro-1-(3-fluorophenyl)ethyl (1-methyl-4-(6-methyl-5-(methylsulfonamido)pyridin-2-yl)-1H-1,2,3-triazol-5-yl)carbamate], for which the EC50 worked out at 43.9 nM.
